What all share (test): Tolerance to antiseptics, disc diffusion assay
(In general: Agar diffusion results depend on both activity and mobility in agar.)

In assay [1] the test system is Porphyromonas gingivalis DSM20709. It counts as cell-based. As to the method: (§1) LAB strains with presumed probiotic properties namely L. brevis, P. acidilactici, P. pentosaceus, S. oralis and S. salivarius were seeded in agar plates with the appropriate nutrient media and incubated in order to obtain isolated colonies. Porphyromonas gingivalis DSM20709 was used as an example of pathogens associated with periodontal pathologies. For each strain the nutritive media and atmospheric conditions used were the most suitable for their proper growth as summarized in TABLE 1.
(§2) For each microorganism, isolated colonies were used for preparing a suspension in Phosphate Buffered Saline 0.1M (PBS) with an optical density equivalent to a Mc Farland standard No. 3. The suspension was used for obtaining a confluent layer of microorganism over the corresponding nutrient medium (TABLE 1) by uniformly seeding the microorganism using a sterile swab.
(§3) Immediately after the inoculation of the strains in the plates, 6 mm of cellulose discs were placed. The discs were impregnated with different conventional antiseptics according to TABLE 2:
(§4) The volume used was the maximum allowed by the disc without spreading on the medium. The solvent was confirmed to not be inhibitory against the bacteria at the amount used. Microorganism were allowed to grow according to the conditions of TABLE 1, and halos of inhibition (in millimeters) measured after 24 h or 48 h according to the corresponding optimal growth conditions for the microorganisms. Results were obtained in triplicate.

In assay [2] the test system is Streptococcus sp. strains (S. oralis, S. salivarius K12). It counts as cell-based. As to the method:
as §1, §2, §3, §4

Another assay concerns L. brevis CD2. It counts as cell-based, Lactobacillus brevis. The procedure:
as §1, §2, §3, §4

Assay [3] concerns Pediococcus strains (P. acidilactici CECT8633, P. acidilactici AB134, P. pentosaceus CECT8330). It counts as cell-based, Pediococcus sp. The following applies: for resistance compared with the other strains tested (disc diffusion): vs L. brevis, Streptococcus sp. and P. gingivalis. The procedure:
as §1, §2, §3, §4

Another assay deals with P. acidilactici CECT8633. It counts as cell-based, Pediococcus acidilactici. As to the method: as §1, §2, §3, §4
Assay [4] has as its system Pediococcus pentosaceous CECT8330. It counts as cell-based, Pediococcus pentosaceus. The following applies: 6 mm discs impregnated with chlorhexidine; concentration not given. The procedure: as §1, §2, §3
The volume used was the maximum allowed by the disc without spreading on the medium. […] Microorganism were allowed to grow according to the conditions of TABLE 1, and halos of inhibition (in millimeters) measured after 24 h or 48 h according to the corresponding optimal growth conditions for the microorganisms. […]

A further assay concerns P. acidilactici AB134. It counts as cell-based, Pediococcus acidilactici. Particulars: 6 mm discs impregnated with chlorhexidine; concentration not given. As to the method:
as §1, §2, §3, §4

[5] abbreviates: highest concentration tested 1.2 mg/mL, 5 uL per disc.
Where [6] appears, read: highest concentration tested 0.12%, v/v.
The mark [7] stands for this setting: triclosan at different concentrations (0.2%, 0.1%, 0.05%), 5 uL per disc.
[8] abbreviates: 6 mm discs impregnated with chlorhexidine, concentration not given.
The mark [9] stands for this setting: any of the concentration tested (0.12%, 0.06%, 0.03%).

Four compounds from US10850135B2, “Antiseptic-tolerant lactic acid bacteria” (AB-BIOTICS, S.A., priority 2016, dated 2020) can be followed below.

Consider `Cc1ccc(C(C)C)c(O)c1` [thymol, 2-isopropyl-5-methylphenol], for which the “growth inhibition (halo, disc diffusion)” value in assay [1] (setting [5]) and in assay [2] (setting [5]) was “inhibited the growth” throughout.
`N=C(NCCCCCCNC(=N)NC(=N)Nc1ccc(Cl)cc1)NC(=N)Nc1ccc(Cl)cc1.O=C(O)[C@H](O)[C@@H](O)[C@H](O)[C@H](O)CO.O=C(O)[C@H](O)[C@@H](O)[C@H](O)[C@H](O)CO` [chlorhexidine gluconate]: the “inhibition (halo, disc diffusion)” value (in assay [1] (setting [6]); in assay [2] (setting [6]); in the assay on L. brevis CD2 (setting [6]); in assay [3] (setting [6])) was “all the strains were inhibited” in each case. For the same compound, the “resistance compared with the other strains tested (disc diffusion)” value in assay [3] is “highest resistance”. For the same compound, the “inhibition halo compared with S. salivarius K12 and P. gingivalis” value in the assay with P. acidilactici CECT8633 (chlorhexidine gluconate 0.12%, 20 μl per 6-mm disc (FIG. 7)) is on record as “lower inhibition halo”.
For `Oc1cc(Cl)ccc1Oc1ccc(Cl)cc1Cl` [triclosan, 5-Chloro-2-(2,4-dichlorophenoxy)phenol], the “inhibition (halo, disc diffusion)” value in assay [1] (setting [7]) is “inhibited”; in assay [2] (setting [7]) it was “inhibited”; in the assay with L. brevis CD2 (setting [7]), “neither Lactobacillus brevis nor the strains belonging to Pediococcus genus were inhibited”; in assay [3] (setting [7]), “neither Lactobacillus brevis nor the strains belonging to Pediococcus genus were inhibited”.
For the compound `NC(=NCCCCCCN=C(N)/N=C(\N)Nc1ccc(Cl)cc1)/N=C(\N)Nc1ccc(Cl)cc1` [chlorhexidine, (1E)-2-[6-[[amino-[(E)-[amino-(4-chloroanilino)methylidene]-amino]methylidene]amino]hexyl]-1-[amino-(4-chloroanilino)methylidene]guanidine], the inhibition halo in assay [1] (setting [8]) is recorded as 9 mm; in assay [4], 4 mm; with P. acidilactici AB134, 2 mm; in the assay on P. acidilactici CECT8633 (setting [8]), 3 mm. For the same compound, the “inhibition (halo, disc diffusion)” value in assay [1] (setting [9]) is given as “inhibited at any of the concentration tested”; in assay [1] (setting [6]), “all the strains were inhibited”; in assay [2] (setting [9]) it was “inhibited at any of the concentration tested”; in assay [2] (setting [6]), “all the strains were inhibited”; in the assay on L. brevis CD2 (concentrations of 0.12% and 0.06%), “inhibited”; in the assay on L. brevis CD2 (setting [6]) it was “all the strains were inhibited”. Further, the “inhibition (halo, disc diffusion)” value in assay [3] (setting [6]) is “all the strains were inhibited”. Also, in assay [3], the “resistance compared with the other strains tested (disc diffusion)” value is reported as “greatest resistance”.
